Patent US20230293629A1, “METHODS FOR ATTENUATING RELEASE OF INFLAMMATORY MEDIATORS AND PEPTIDES USEFUL THEREIN” (BIOMARCK PHARMACEUTICALS LTD., priority 2006, published 2023)
Where a SMILES comes first, the peptide text is derived from it. Where no end group is shown, it is not given here. The star is where a group is joined. Myristoyl = CCCCCCCCCCCCCC(=O)*

Experiments:
U937 cells = assay: PMA-stimulated lysozyme secretion by U937 cells; type: cell-based, human; conditions: for % Inhibition Lysozyme: 50 μM test peptide, two hour incubation with 100 nM PMA, U937 cells
Experimental: Three types of human leukocyte cell lines, specifically the promyelocytic cell line HL-60 clone 15, the monocytic cell line U937, and the lymphocyte natural killer cell line NK-92 were purchased from American Type Culture Collection (ATCC; Rockville, MD). HL-60 clone 15 cells (ATCC CRL-1964) were maintained in medium consisting of RPMI 1640 with L-glutamine supplemented with 10% heat-inactivated fetal bovine serum (Gibco; Invitrogen Co., Carlsbad, CA), 50 IU/ml penicillin, 50 μg/mL streptomycin, and 25 mM HEPES buffer, pH 7.8, at 37° C. in an atmosphere containing 5% CO2. Final differentiation to an eosinophil-like phenotype was initiated by culturing cells at 5×10^5 cells/ml in the above medium containing 0.5 mM butyric acid (Sigma-Aldrich Co.) for 5 days as previously described (Tiffany H L, Li F, Rosenberg H F. Hyperglycosylation of eosinophil ribonucleases in a promyelocytic leukemia cell line and in differentiated peripheral blood progenitor cells. J Leukoc Biol 1995; 58:49-54; Tiffany H L, Alkhatib G, Combadiere C, Berger E A, Murphy P M. CC chemokine receptors 1 and 3 are differentially regulated by IL-5 during maturation of eosinophilic HL-60 cells. J Immunol 1998; 160:1385-1392). U937 cells (ATCC CRL-1593.2) were grown at 37° C. in an atmosphere of 5% CO2 in complete medium consisting of RPMI 1640 with L-glutamine supplemented with 10% FBS, 50 IU/ml penicillin, and 50 μg/mL streptomycin. NK-92 cells (ATCC CRL-2407) were maintained in alpha-MEM medium (Sigma-Aldrich Co.) supplemented with 20% FBS, 100 U/ml of interleukin-2 (IL-2) (Chemicon International, Inc., Temecula, CA), 5×10^−5 M of 2-mercaptoethanol, 50 IU/mL penicillin, and 50 μg/ml streptomycin at 37° C. in an atmosphere containing 5% CO2. Cell morphology was judged by assessment of Wright-Giemsa-stained cells. Viability of cells harvested for experiments was assessed by trypan blue exclusion and populations of cells with viability >95% were used.
HL-60 clone 15, U937, and NK-92 cells were washed and resuspended at 2.5×10^6 cells/ml in phenol red-free RPMI-1640 (Cellgro; Mediatech, Inc.) for all degranulation assays. Aliquots of cells in 15 ml tubes were preincubated with indicated concentrations of MANS, RNS, or a test peptide for 10 min at 37° C. The cells then were stimulated with PMA for up to 2 hr. A control reference (PMA control reference) was established for each cell type using HL-60 clone 15, U937, and NK-92 cells, respectively, which were washed and resuspended at 2.5×10^6 cells/ml in phenol red-free RPMI-1640 and stimulated with PMA but in the absence of MANS, RNS, or a test peptide for the same time periods. The reaction was terminated by placing tubes on ice and centrifuging cells at 400 g for 5 min at 4° C.
For measurements of released MPO from neutrophils and released lysozyme from U937 cells, we were able to quantify secretion by using as standards human MPO and egg white […], respectively. For released EPO from HL-60 clone 15 cells and for released granzyme from NK-92 cells, no standards were available to use for quantification. […] To measure intracellular EPO in HL-60 clone 15 cells and intracellular granzyme in NK-92 cells, appropriate aliquots of 0.1% triton X-100-lysed cells were taken for quantification of intracellular granule proteins as described below. All treatments were expressed as percentage of control to minimize variability between cultures.
Lysozyme secreted by U937 cells was measured using a spectrophotometric assay as described previously (Balboa M A, Saez Y, Balsinde J. Calcium-independent phospholipase A2 is required for lysozyme secretion in U937 promonocytes. J Immunol 2003; 170:5276-5280) with slight modification. Thus, 100 μL of sample was mixed with 100 μL of a Micrococcus lysodeikticus (Sigma-Aldrich Co.) suspension (0.3 mg/ml in 0.1 M sodium phosphate buffer, pH 7.0) in a 96-well microplate. The decrease in absorbance at 450 nm was measured at room temperature. […]

[1] = test system: isolated human neutrophils; assay: MPO secretion from isolated human neutrophils stimulated with PMA + 8-Br-cGMP (FIG. 7, 8, 9); type: cell-based; conditions: for MPO secretion: FIG. 7, 100 nM PMA and 10 μM 8-Br-cGMP

CCCCCCCCCCCCCC(=O)NCC(=O)N[C@@H](C)C(=O)N[C@@H](CCC(N)=O)C(=O)N[C@@H](Cc1ccccc1)C(=O)N[C@@H](CO)C(=O)N[C@@H](CCCCN)C(=O)N[C@H](C(=O)N[C@@H](C)C(=O)N[C@@H](C)C(=O)N[C@@H](CCCCN)C(=O)NCC(=O)N[C@@H](CCC(=O)O)C(=O)N[C@@H](C)C(=O)N[C@@H](C)C(=O)N[C@@H](C)C(=O)N[C@@H](CCC(=O)O)C(=O)N[C@@H](CCCNC(=N)N)C(=O)N1CCC[C@H]1C(=O)NCC(=O)N[C@@H](CCC(=O)O)C(=O)N[C@@H](C)C(=O)N[C@@H](C)C(=O)N[C@H](C(=O)N[C@@H](C)C(=O)O)C(C)C)[C@@H](C)O [MANS] (Myristoyl-GAQFSKTAAKGEAAAERPGEAAVA-OH; C-terminus assumed)
reduction in lysozyme secretion relative to the PMA control reference (U937 cells; 10 μM, 1 hour): about 20%
lysozyme secretion relative to control as 100% (U937 cells; 10 μM, 1 hour, PMA control reference about 210%): about 170%
reduction in lysozyme secretion relative to the PMA control reference (U937 cells; 10 μM, 2 hour): about 20%
lysozyme secretion relative to control as 100% (U937 cells; 10 μM, 2 hour, PMA control reference about 240%): about 195%
% Inhibition Lysozyme (U937 cells): 40.8%
reduction in lysozyme secretion relative to the PMA control reference (U937 cells; 50 μM, 1 hour): about 20%
lysozyme secretion relative to control as 100% (U937 cells; 50 μM, 1 hour, PMA control reference about 210%): about 170%
reduction in lysozyme secretion relative to the PMA control reference (U937 cells; 50 μM, 2 hour): about 25%
lysozyme secretion relative to control as 100% (U937 cells; 50 μM, 2 hour, PMA control reference about 240%): about 185%
reduction in lysozyme secretion relative to the PMA control reference (U937 cells; 100 μM, 1 hour): about 45%
lysozyme secretion relative to control as 100% (U937 cells; 100 μM, 1 hour, PMA control reference about 210%): about 115%
reduction in lysozyme secretion relative to the PMA control reference (U937 cells; 100 μM, 2 hour): about 40%
lysozyme secretion relative to control as 100% (U937 cells; 100 μM, 2 hour, PMA control reference about 240%): about 140%
MPO secretion ([1]; 10 μM peptide): slight decrease
MPO secretion ([1]; 100 μM peptide): decreased secretion of MPO to control levels

CCCCCCCCCCCCCC(=O)O[C@@H]1[C@@H](C)[C@@]2(O)[C@@H](C=C(CO)C[C@]3(O)C(=O)C(C)=C[C@@H]23)[C@@H]2C(C)(C)[C@]12OC(C)=O [PMA, phorbol 12-myristate 13-acetate]
MPO secretion from LPS-stimulated human neutrophils ([1]; FIG. 8, PMA alone, enhanced concentration-dependently by co-stimulation with 8-Br-cGMP): small increase

CCCCCCCCCCCCCC(=O)NCC(=O)N[C@H](C(=O)N[C@@H](C)C(=O)N1CCC[C@H]1C(=O)N[C@@H](C)C(=O)N[C@@H](C)C(=O)N[C@@H](CCC(=O)O)C(=O)NCC(=O)N[C@@H](C)C(=O)NCC(=O)N[C@@H](C)C(=O)N[C@@H](CCC(=O)O)C(=O)N[C@H](C(=O)N[C@@H](CCCCN)C(=O)N[C@@H](CCCNC(=N)N)C(=O)N[C@@H](C)C(=O)N[C@@H](CO)C(=O)N[C@@H](C)C(=O)N[C@@H](CCC(=O)O)C(=O)N[C@@H](C)C(=O)N[C@@H](CCCCN)C(=O)N[C@@H](CCC(N)=O)C(=O)N[C@@H](C)C(=O)N[C@@H](Cc1ccccc1)C(=O)O)C(C)C)[C@@H](C)O [RNS, reference compound] (Myristoyl-GTAPAAEGAGAEVKRASAEAKQAF-OH; C-terminus assumed)
% Inhibition Lysozyme (U937 cells): 0%
effect on PMA-enhanced lysozyme secretion (U937 cells; any of the time points or concentrations tested): did not affect
MPO secretion ([1]; 10 or 100 μM peptide): no effect

Ac-GAQFSKTAAK [Ac-GAQFSKTAAK]
% Inhibition Lysozyme (U937 cells): 41.2%

Ac-GAQFSKTAAKGEAAAERPGEAAVA
% Inhibition Lysozyme (U937 cells): 39.8%
